# Where two headings read alike, the source gives them in different places.
# Columns and labels:
# [1] = biological target: T1, CDK12/cyclin K + DDB1 (Homo sapiens, UniProt Q16531+Q9NYV4, DEL396-705); assay: Microscale thermophoresis, ternary complex formation; type: binding; details: MST
# T1 construct: The kinase domain of human CDK12 (Uniprot: Q9NYV4; a.a; 715–1050); GST (N, cleaved yes); made in house; host or cells: Spodoptera frugiperda SF9 insect cells (Bac-to-Bac); CDK12/cyclin K co-infected with S. cerevisiae CAK1
# Experimental: Finally, the capacity of small molecules to induce a ternary complex between CDK12/cyclin K and DDB1 in vitro was assessed by microscale thermophoresis (MST). Labeled DDB1ΔBPB was combined with purified CDK12/cyclin K, and fluorescence intensity was monitored with increasing compound concentrations.
# Cell pellets were harvested 48 hours post infection via centrifugation and lysed in buffer A (50 mM Tris–HCl (pH 8.0), 200 mM NaCl, 10 mM imidazole, 0.5 mM tris(2-carboxyethyl) phosphine (TCEP)) supplemented with EDTA-free Pierce™ protease inhibitor tablet (Thermo Fisher Scientific). […] The concentrated protein at 2 mg mL^−1 was flash-frozen in liquid nitrogen and stored at −80 °C.
# Full-length S. cerevisiae CAK1 (Uniprot: P43568) with an N-terminal His6 tag was subcloned into pFastBac 1 vector. […] The eluted CDK12/cyclin K complex was concentrated to 2 mg mL^−1, flash-frozen in liquid nitrogen and stored at −80 °C.
# A protocol to assess ternary binding of molecular glues with CDK12/cycK and DDB1 by MST was established using published procedures for PROTAC interaction with bromodomains and E3 ubiquitin ligases.[38] His8-DDB1-ΔBPB was labeled with the MO-L018 Monolith™ His-tag Labeling Kit RED-tris-NTA 2nd Generation (NanoTemper Technologies) following the instruction manual. 100 nM dye was mixed with 200 nM DDB1 in 50 mM HEPES pH 7.5, 150 mM NaCl, 5% glycerol, 0.05% Tween, and incubated at room temperature for 30 min. […] MST traces were recorded using standard parameters: 5 s MST power off, 30 s MST power on and 5 s MST power off. Measurements were taken at −1 to 0 s (cold region) and 9–10 s (hot region). Data were analyzed using a fitting function derived from the law of mass action:1 [drawing 6] where f(c) is the fluorescence signal (Fnorm) at a given ligand concentration (c), B is Fnorm of fully liganded DDB1 at high ligand concentrations, U is Fnorm of DDB1 alone at low ligand concentrations, Kd is the dissociation constant or binding affinity, cT is the final concentration of DDB1 in the assay (Fig. 3G). For normalization, the data were first transformed using eqn (2) where y is the fraction bound, followed by fitting to eqn (3) (Fig. 5B–E).2 [drawing 7] 3 [drawing 8]
# [2] = system: cyclin K; assay: Immunofluorescence of nuclear cyclin K in MDA-MB-231 cells; type: cell-based, human; details: MDA-MB-231 cells, 0.5 µM, 2 h
# Experimental: Cells were fixed with 4% PFA in PBS at room temperature, permeabilized with 0.1% Triton X-100 in PBS, and blocked with 3% BSA in PBS at room temperature. Cells were incubated with primary antibodies overnight at 4 °C, followed by incubation with Alexa-Fluor conjugated secondary antibodies for 1 hour at room temperature. Cell nuclei were stained using DAPI. Images were acquired on a confocal microscope (Leica). ImageJ and QuPath were used for image analysis.
# Figure S8. Immunofluorescence staining for cyclin K degradation. MDA-MB-231 cells were
# treated for 2 h with either DMSO or the indicated compounds (0.5 µM) . Cells were fixed and
# Nuclei were stained with DAPI (blue). […]
# [3] = system: HiBiT-tagged cyclin K; assay: HiBiT cyclin K degradation assay (DC50, Dmax); type: cell-based; details: HiBiT-CCNK KI A549 cells, 2 hours, vs DMSO
# Experimental: Next, we utilized HiBiT technology (Promega) for quantitative analysis of cyclin K degrader activity. […] Importantly, knockout of CDK12 using CRISPR/Cas9 protected cyclin K from SR-4835-induced degradation (Fig. 1D). We verified the depletion of CDK12 in HEK-293T cells (Fig. S3, ESI ^†).
# The HiBiT-CCNK KI A549 cells (Promega) were seeded in 384 well plate and treated with the test compounds for 2 hours in a dose dependent manner. Nano-Glo® HiBiT Lytic Detection System (Promega) composed of the Nano-Glo® HiBiT Lytic Substrate, Nano-Glo® HiBiT Lytic Buffer and LgBiT Protein was used as per the manufacturer's instructions. Briefly, a 2× Nano-Glo® HiBiT Lytic Detection Reagent mixture was prepared by adding 20 μL of Nano-Glo® HiBiT Lytic Substrate and 10 μL of LgBiT protein per every 1 mL of Nano-Glo® HiBiT Lytic Buffer. After incubating the cells with the 2× Nano-Glo® HiBiT Lytic Detection Reagent mixture, luminescence was measured. HiBiT tagged cyclin K present at any given concentration was measured by normalizing the luminescence signal at that concentration to the luminescence signal from the DMSO (control) cells. The concentration necessary to achieve a 50% reduction in cyclin K levels (DC50) and the maximum achievable reduction in cyclin K levels (Dmax) was computed from this assay.
# [4] = biological target: CDK12 (Homo sapiens, UniProt Q9NYV4); assay: CDK12 functional (kinase inhibition) assay; type: biochemical; details: vs MR-1187
# [5] = biological target: T2, Cdk12/CycK and DDB1ΔB (Homo sapiens, UniProt Q16531+Q9NYV4, DEL396-705); assay: GST pulldown assay, recruitment of DDB1ΔB to Cdk12/CycK; type: binding; details: GST-Cdk12/GST-CycK bait, 5 μM compound, vs DMSO
# T2 construct: the Cdk12 (714–1063)/CycK (1–267) complex and the DDB1ΔB protein; made in house; host or cells: Sf9 insect cells (MultiBacTurbo)
# Experimental: The pulldown assay was utilized to identify drug-triggered protein–protein interactions involving the Cdk12 (714–1063)/CycK (1–267) complex and the DDB1ΔB protein. In this assay, purified GST-tagged Cdk12 construct complexed with GST-CycK was combined with equimolar amounts of His6-tagged DDB1ΔB (5 μM) in the presence of 5 μM of the respective small molecular compound in pulldown assay buffer (50 mM Hepes pH 7.4, 200 mM NaCl, 0.25 mM TCEP, 0.05% (v/v) Tween20), ensuring a 2% total DMSO concentration. Experimental controls included samples supplemented with 2% DMSO instead of compound as well as samples devoid of the GST-tagged Cdk12/CycK complex. Each sample was individually added to approximately 50 μL of pre-equilibrated glutathione agarose beads (Thermo Fisher Scientific). The bead suspensions were then subjected to a 2 h incubation period at room temperature with gentle agitation. After incubation, the beads were pelleted by centrifugation at 700 × g for 4 min, the supernatant was discarded, and the beads were washed three-times with 100 μL of pulldown assay buffer. Following the washing step, bound proteins were eluted from the beads with 50 μL of pulldown assay buffer supplemented with 10 mM GSH for 1 h at room temperature under rotation. Subsequently, the beads were again pelleted by centrifugation at 700 × g for 4 min and the resulting supernatants containing eluted protein fractions were mixed with 6 × SDS sample buffer at a 1 : 1 (v/v) ratio. The eluted protein samples were separated by SDS-PAGE and subjected to Coomassie brilliant blue staining for visualization and analysis.
# [6] = biological target: T2, Cdk12/CycK and DDB1ΔB; assay: Dynamic light scattering of SEC peak fractions; type: binding; details: SEC peak middle fractions, vs negative controls
# Experimental: To evaluate particle size distribution in liquid solution, dynamic light scattering was employed. Specifically, 10 μL fractions from the central region of peaks obtained in analytical size exclusion chromatography runs were analyzed. This analysis was performed using a DynaPro NanoStar 672 (Wyatt Technology) in a disposable DLS MicroCuvette (Wyatt Technology), while maintaining a constant temperature of 25 °C. Each measurement was conducted with an acquisition time of 3 s, and each data point depicted in the Results section represents the average of 20 individual DLS measurements. The hydrodynamic radius of the protein samples was determined using the processing and analysis software DYNAMICS.
# [7] = biological target: T2, Cdk12/CycK and DDB1ΔB; assay: Analytical size-exclusion chromatography of DDB1ΔB and Cdk12/CycK; type: binding; details: 20 μM proteins, 60 μM compound, vs DMSO and THZ531
# Experimental: Analytical size-exclusion chromatography was employed to investigate compound-induced protein–protein interactions between the heterodimeric Cdk12 (714–1063)/CycK (1–267) complex and the RING E3 ligase-associated adaptor protein DDB1ΔB. The analysis was conducted on an Agilent 1260 Infinity II HPLC system (Agilent Technologies), coupled with a Superdex 200 Increase 3.2/300 column (Cytiva), pre-equilibrated in Cdk12 SEC buffer (20 mM Hepes pH 7.8, 400 mM NaCl, 1 mM TCEP) supplemented with 1 g L^−1 carboxymethyl-dextran. Purified proteins, combined in equimolar ratios (20 μM Cdk12/CycK and DDB1ΔB, respectively) were supplemented with 3-fold molar excess of small molecular compounds. The resulting protein mixtures were diluted to a final volume of 25 μL using the kinases SEC-buffer ensuring a final DMSO concentration of 2%, followed by an incubation period of 10 min. Upon injection into the analytical system, the chromatography was conducted at a controlled flow rate of 0.05 mL min^−1, with protein absorbance monitored at 280 nm wavelength. Peak fractions were collected drop by drop and subsequently subjected to analysis via dynamic light scattering (DLS) to assess their size distribution, along with SDS-PAGE analysis to determine the composition of the protein complex.
# T1 sequence (Q16531 with tags, fused parts or gaps DEL396-705): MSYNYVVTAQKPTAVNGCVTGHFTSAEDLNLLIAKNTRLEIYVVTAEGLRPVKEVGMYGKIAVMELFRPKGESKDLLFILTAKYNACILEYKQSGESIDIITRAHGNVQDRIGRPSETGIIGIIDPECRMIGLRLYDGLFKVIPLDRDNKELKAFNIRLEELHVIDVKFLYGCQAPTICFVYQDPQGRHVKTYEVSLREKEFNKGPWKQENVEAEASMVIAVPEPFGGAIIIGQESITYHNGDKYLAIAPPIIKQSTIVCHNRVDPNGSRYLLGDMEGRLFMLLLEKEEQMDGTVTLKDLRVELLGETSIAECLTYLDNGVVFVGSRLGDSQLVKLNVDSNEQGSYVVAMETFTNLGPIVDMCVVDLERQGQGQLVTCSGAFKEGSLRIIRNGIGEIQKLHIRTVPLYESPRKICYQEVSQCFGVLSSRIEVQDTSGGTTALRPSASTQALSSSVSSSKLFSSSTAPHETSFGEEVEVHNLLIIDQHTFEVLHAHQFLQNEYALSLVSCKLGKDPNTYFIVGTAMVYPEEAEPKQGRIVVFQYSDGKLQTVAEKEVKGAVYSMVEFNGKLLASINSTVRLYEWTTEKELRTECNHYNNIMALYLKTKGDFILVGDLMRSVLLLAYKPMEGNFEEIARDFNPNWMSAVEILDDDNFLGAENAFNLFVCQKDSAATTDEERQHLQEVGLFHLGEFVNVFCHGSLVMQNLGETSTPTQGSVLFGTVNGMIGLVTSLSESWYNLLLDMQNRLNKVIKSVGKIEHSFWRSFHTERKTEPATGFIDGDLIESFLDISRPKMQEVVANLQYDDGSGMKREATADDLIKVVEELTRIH
# T1 sequence (Q9NYV4 715-1050, stated change not applied): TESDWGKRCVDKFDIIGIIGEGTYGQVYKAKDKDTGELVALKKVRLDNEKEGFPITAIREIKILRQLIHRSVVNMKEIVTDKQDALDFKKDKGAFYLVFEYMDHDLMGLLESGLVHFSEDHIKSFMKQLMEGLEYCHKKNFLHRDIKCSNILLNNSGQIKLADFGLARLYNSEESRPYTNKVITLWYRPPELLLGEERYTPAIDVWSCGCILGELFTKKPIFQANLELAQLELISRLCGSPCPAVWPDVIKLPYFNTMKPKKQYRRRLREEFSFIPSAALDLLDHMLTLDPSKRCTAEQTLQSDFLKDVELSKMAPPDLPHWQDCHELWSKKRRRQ
# T1 sequence (O75909 11-267 partner limits assumed): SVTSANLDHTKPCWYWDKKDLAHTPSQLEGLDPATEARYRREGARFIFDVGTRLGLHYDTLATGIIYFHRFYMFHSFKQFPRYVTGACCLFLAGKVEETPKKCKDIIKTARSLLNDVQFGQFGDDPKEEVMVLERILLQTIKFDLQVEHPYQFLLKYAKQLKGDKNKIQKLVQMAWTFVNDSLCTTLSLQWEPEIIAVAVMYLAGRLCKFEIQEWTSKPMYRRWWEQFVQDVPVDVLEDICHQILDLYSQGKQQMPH
# T2 sequence (Q9NYV4 714-1063, stated change not applied): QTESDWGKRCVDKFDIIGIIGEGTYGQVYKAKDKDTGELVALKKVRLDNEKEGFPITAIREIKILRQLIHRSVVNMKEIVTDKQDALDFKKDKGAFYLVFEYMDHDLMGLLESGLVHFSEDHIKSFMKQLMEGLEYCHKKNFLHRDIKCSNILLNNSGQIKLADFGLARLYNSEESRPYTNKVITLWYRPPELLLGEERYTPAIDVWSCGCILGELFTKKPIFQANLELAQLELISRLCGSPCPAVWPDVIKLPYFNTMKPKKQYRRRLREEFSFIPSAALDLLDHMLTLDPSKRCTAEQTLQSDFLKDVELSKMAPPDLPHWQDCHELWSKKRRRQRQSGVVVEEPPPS
# T2 sequence (O75909 1-267 partner limits assumed): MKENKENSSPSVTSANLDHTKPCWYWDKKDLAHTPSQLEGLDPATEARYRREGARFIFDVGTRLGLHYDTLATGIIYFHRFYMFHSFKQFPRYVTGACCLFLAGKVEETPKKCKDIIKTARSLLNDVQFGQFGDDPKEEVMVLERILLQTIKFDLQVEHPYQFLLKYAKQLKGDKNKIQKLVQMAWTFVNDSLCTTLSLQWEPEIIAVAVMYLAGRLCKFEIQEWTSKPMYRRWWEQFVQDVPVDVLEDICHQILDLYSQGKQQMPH
# T2 sequence (Q16531 with tags, fused parts or gaps DEL396-705): as the sequence (Q16531 with tags, fused parts or gaps DEL396-705) above
# CDK12, sequence (Q9NYV4 whole entry): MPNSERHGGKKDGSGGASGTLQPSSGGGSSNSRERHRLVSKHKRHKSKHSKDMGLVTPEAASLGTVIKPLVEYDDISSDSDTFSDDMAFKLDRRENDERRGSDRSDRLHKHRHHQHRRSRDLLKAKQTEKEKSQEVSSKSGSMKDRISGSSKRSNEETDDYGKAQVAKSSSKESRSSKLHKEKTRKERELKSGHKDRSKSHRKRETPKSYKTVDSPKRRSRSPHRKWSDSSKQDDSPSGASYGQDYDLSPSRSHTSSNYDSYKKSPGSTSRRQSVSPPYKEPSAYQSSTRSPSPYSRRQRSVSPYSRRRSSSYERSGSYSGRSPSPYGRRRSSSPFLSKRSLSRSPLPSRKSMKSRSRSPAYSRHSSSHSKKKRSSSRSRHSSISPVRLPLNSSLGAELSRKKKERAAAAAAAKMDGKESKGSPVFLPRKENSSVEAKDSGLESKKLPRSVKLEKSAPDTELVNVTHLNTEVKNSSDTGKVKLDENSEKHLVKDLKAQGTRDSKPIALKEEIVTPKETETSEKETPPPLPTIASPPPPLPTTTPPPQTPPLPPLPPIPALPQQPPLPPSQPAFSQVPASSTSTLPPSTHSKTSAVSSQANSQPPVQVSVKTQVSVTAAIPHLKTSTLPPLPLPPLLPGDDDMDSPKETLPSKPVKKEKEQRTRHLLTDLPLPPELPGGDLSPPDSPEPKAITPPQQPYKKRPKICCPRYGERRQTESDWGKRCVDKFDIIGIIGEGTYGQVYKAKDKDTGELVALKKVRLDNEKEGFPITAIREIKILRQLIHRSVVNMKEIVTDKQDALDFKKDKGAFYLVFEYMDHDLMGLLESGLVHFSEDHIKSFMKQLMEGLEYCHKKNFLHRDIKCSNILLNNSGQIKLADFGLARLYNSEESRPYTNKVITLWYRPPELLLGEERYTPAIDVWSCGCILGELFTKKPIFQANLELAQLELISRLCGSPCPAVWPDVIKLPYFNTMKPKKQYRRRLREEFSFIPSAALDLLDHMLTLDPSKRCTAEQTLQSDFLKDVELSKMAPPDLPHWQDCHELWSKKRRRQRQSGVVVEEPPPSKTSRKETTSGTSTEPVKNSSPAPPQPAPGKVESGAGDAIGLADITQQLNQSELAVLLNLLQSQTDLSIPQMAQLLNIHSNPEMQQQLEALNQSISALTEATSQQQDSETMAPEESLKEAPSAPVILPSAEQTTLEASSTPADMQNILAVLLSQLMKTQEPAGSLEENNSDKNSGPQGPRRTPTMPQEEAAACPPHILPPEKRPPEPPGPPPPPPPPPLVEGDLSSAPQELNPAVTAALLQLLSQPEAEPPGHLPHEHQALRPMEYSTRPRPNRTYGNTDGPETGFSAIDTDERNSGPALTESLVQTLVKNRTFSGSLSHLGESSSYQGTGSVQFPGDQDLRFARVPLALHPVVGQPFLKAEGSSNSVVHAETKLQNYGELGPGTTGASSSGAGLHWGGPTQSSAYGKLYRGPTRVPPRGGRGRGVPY
# CDK12, sequence (O75909 whole entry partner): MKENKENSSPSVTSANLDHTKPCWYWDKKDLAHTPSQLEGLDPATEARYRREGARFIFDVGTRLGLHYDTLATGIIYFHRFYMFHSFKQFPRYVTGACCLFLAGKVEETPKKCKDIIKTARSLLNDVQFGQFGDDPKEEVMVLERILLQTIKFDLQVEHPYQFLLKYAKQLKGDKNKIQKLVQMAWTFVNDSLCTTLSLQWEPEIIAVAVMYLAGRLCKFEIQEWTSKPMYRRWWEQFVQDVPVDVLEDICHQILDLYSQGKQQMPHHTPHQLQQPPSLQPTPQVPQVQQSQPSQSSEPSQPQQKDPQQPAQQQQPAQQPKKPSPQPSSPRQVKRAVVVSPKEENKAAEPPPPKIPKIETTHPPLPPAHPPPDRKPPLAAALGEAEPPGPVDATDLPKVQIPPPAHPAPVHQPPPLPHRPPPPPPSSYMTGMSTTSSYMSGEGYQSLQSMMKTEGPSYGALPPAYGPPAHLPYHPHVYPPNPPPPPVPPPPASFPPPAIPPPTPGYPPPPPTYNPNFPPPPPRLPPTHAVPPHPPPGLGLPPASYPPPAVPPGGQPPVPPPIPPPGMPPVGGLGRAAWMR
"Kd ([1]; labeled DDB1 + CDK12/cyclin K, run #1, read-out: Kd ternary complex formation, replicate #1) [nM]","Kd ([1]; labeled DDB1 + CDK12/cyclin K, run #2, read-out: Kd ternary complex formation, replicate #2) [nM]","Kd ([1]; labeled DDB1 + CDK12/cyclin K, run #3, read-out: Kd ternary complex formation, replicate #3) [nM]","Kd ([1]; labeled DDB1ΔBPB 10 nM + CDK12/cyclin K 1000 nM, mean of replicates, read-out: Kd ternary complex formation (average)) [nM]",fold better CDK12 kinase inhibition compared to MR-1187 [4] [fold],recruitment of DDB1ΔB in pulldown [5],hydrodynamic radius (DLS) [6],retention time in analytical SEC (ternary complex formation) [7],SMILES,cyclin K nuclear intensity compared to control [2],Dmax (maximum reduction in cyclin K levels) [3] [%]
8.7 ± 2.7,10.3 ± 4,9.6 ± 3.3,9.5,35,–,–,–,"CCc1cnn2c(NCc3nc4cc(Cl)c(Cl)cc4[nH]3)cc(N3CCCC[C@H]3CCO)nc12 [MR-1226, (S)-2-(1-(7-(((5,6-Dichloro-1H-benzo[d]imidazol-2-yl)methyl)amino)-3-ethylpyrazolo[1,5-a]pyrimidin-5-yl)piperidin-2-yl)ethan-1-ol]",reduced,> 95
–,–,–,–,–,enrichment of DDB1ΔB fractions,significantly increased,reduced retention times,"CC[C@H](CO)Nc1nc(NCc2ccc(-c3ccccn3)cc2)c2ncn(C(C)C)c2n1 [CR8, reference compound]",–,–

# Source: PMC11494886, “Discovery and design of molecular glue enhancers of CDK12–DDB1 interactions for targeted degradation of cyclin K” (RSC Chemical Biology, 2024)
